Tested on: intraocular pressure in rabbits
Test: Effects of topically administered renin inhibiting compounds on intraocular pressure of rabbits
Assay type: in vivo, Male albino, New Zealand rabbits
Conditions: topical 0.1 ml, 0.1% (w/v)
Description: The antiglaucoma activity of the compounds was tested by measuring the effect on intraocular pressure in rabbits as described by Tinjum, A.M., Acta Ophthalmologica, 50, 677 (1972). Male albino, New Zealand rabbits were placed in restraining devices and the intraocular pressure was measured with an applamatic tonometer. Exactly 0.1 ml of an isotonic saline solution containing a test compound was instilled into the conjuctival sac and the intraocular pressure was measured at 5, 15, 30, 60, 90, 120 and 180 minutes afterwards.

[1] = 15 minutes after administration
[2] = 30 minutes after administration
[3] = 60 minutes after administration
[4] = 90 minutes after administration
[5] = 120 minutes after administration
[6] = 180 minutes after administration

Row | Compound | Mean Intraocular Pressure in mmHg (0 minutes after administration) [mmHg] | Mean Intraocular Pressure in mmHg (5 minutes after administration) [mmHg] | Mean Intraocular Pressure in mmHg [1] [mmHg] | Mean Intraocular Pressure in mmHg [2] [mmHg] | Mean Intraocular Pressure in mmHg [3] [mmHg] | Mean Intraocular Pressure in mmHg [4] [mmHg] | Mean Intraocular Pressure in mmHg [5] [mmHg] | Mean Intraocular Pressure in mmHg [6] [mmHg]
1 | CC(C)C[C@H](O)[C@H](O)[C@H](CC1CCCCC1)NC(=O)[C@H](Cc1cnc[nH]1)NC(=O)[C@H](Cc1ccccc1)NC(=O)N1CCOCC1 [Compound I, (4-morpholinyl)carbonyl Phe-His amide of 2(S) amino-1 cyclohexyl-(3R),4(S)dihydroxy-6-methylheptane] | 19.0 | 18.2 | 16.5 | 12.2 | 13.9 | 15.1 | 16.8 | 20.4
2 | CCOC(=O)[C@H](C)NC(Cc1ccccc1)C(=O)NC(Cc1cnc[nH]1)C(=O)N[C@@H](CC1CCCCC1)[C@@H](O)[C@@H](O)CC(C)C (stereo partly drawn) [Compound XIV, (1(S)-(Ethoxycarbonyl)-ethyl)-Phe-His amide of 2 (S)-amino 1-cyclohexyl-3(R),4(S)-dihydroxy 6-methylheptane] | 21.0 | 16.8 | 14.0 | 15.1 | 14.6 | 16.4 | 17.9 | 19.6
3 | Boc-Phe-His amide of (2S,4S,1'R,2'S)-2-(2-amino-7-cyclohexyl-4,5-dihydroxyheptan-2-oic acid sodium salt [Compound XI] | 18.5 | 13.4 | 11.4 | 10.6 | 14.6 | 16.1 | 15.7 | 19.0

Reference: patent publication US5059589A, “Glaucoma treatment” (Abbott Laboratories, priority 1990, dated 1991)
